In PubChem BioAssay AID194 (DTP/NCI, 2004) one finds T/C data, which are given here for ten molecules.

“And” between values parts separate entries of the source, which are not always exact repeats. Identical values can stand only once. Results filed as inconclusive are left out. Where a SMILES comes first, the peptide text is derived from it. Bridges are numbered along the chain shown (N, C = ends). Roman numbers before positions name the chains, in order. [ ]: non-standard residue; d: D form. The star is where a group is joined. Quinoxaline2carbonyl = O=C(c1cnc2ccccc2n1)*; NMeV = CN[CH](C(=O)O)C(C)C; NMeC = CN[CH](CS)C(=O)O

The test deals with BDF1 mice, B16 melanoma s.c., survival/tumor T/C. The test can be described thus: NCI In Vivo Anticancer Drug Screen. Data for tumor model B16 Melanoma (subcutaneous) in B6D2F1 (BDF1) mice. The method, then: The antitumor activity of compounds was measured in mice bearing transplantable tumors. Survival or tumor size were measured and the results are expressed as the measurement made in the treated group (T) divided by the measurement made in the vehicle treated control group (C). The tumor model used in this assay is B16 Melanoma (subcutaneous) in B6D2F1 (BDF1) mice

The mark [1] stands for this setting: endpoint: median survival time, dose: 1.0 mg/kg/injection, schedule: Q01DX009 (ip), vehicle: saline, higher = longer survival.
[2] abbreviates: endpoint: median survival time, dose: 2.0 mg/kg/injection, schedule: Q01DX009 (ip), vehicle: saline, higher = longer survival.
Setting [3] is: endpoint: median survival time, dose: 4.0 mg/kg/injection, schedule: Q01DX009 (ip), vehicle: saline, higher = longer survival.
Setting [4] is: endpoint: median survival time, dose: 8.0 mg/kg/injection, schedule: Q01DX009 (ip), vehicle: saline, higher = longer survival.
Where [5] appears, read: endpoint: median survival time, dose: 16.0 mg/kg/injection, schedule: Q01DX009 (ip), vehicle: saline, higher = longer survival.

As for `Cc1c(N)nc([C@H](CC(N)=O)NC[C@H](N)C(N)=O)nc1C(=O)N[C@H](C(=O)N[C@H](C)[C@@H](O)CC(=O)N[C@H](C(=O)NC(O[C@@H]1O[C@@H](C)[C@@H](N)[C@@H](O)[C@H]1O)C(O)c1nc(-c2nc(C(=O)NCCCCN)cs2)cs1)[C@@H](C)O)[C@@H](O[C@@H]1O[C@@H](CO)[C@@H](O)[C@H](O)[C@@H]1O[C@H]1O[C@H](CO)[C@@H](O)[C@H](OC(N)=O)[C@@H]1O)c1c[nH]cn1` (stereo partly specified), the T/C was 109 % of control (endpoint: median survival time, dose: 0.12 mg/kg/injection, schedule: Q01DX009 (ip), vehicle: water, higher = longer survival); 89 % of control (endpoint: median survival time, dose: 0.25 mg/kg/injection, schedule: Q01DX009 (ip), vehicle: water, higher = longer survival); 180 % of control under setting [1]; 180 % of control under setting [2]; 91 % of control (endpoint: median survival time, dose: 2.0 mg/kg/injection, schedule: Q01DX009 (ip), vehicle: water, higher = longer survival); 180 % of control under setting [3]. The T/C is 206 % of control under setting [4]; 174 % of control (endpoint: median survival time, dose: 12.0 mg/kg/injection, schedule: Q01DX009 (ip), vehicle: saline, higher = longer survival); 180 % of control under setting [5].
`CCC1(O)CC2CN(CCc3c([nH]c4ccccc34)C(C(=O)OC)(c3cc4c(cc3OC)N(C)C3C(O)(C(N)=O)C(O)C5(CC)C=CCN6CCC43C65)C2)C1` (stereo unspecified) (tested in a mixture with another compound): the T/C (endpoint: median survival time, dose: 1.8 mg/kg/injection, schedule: Q04DX003 (ip), vehicle: water, higher = longer survival) was 87 % of control.
Consider `C/C=C(\C)C(=O)O[C@@H]1c2cc3c(cc2-c2c(cc(OC)c(OC)c2OC)[C@@H]2C(=O)OC[C@@H]12)OCO3`, for which the T/C is 109 % of control (endpoint: median survival time, dose: 1.25 mg/kg/injection, schedule: Q01DX009 (ip), vehicle: Klucel (hydroxypropylcellulose) (HPC), higher = longer survival); 101 % of control (endpoint: median survival time, dose: 2.5 mg/kg/injection, schedule: Q01DX009 (ip), vehicle: Klucel (hydroxypropylcellulose) (HPC), higher = longer survival); 109 % of control (endpoint: median survival time, dose: 5.0 mg/kg/injection, schedule: Q01DX009 (ip), vehicle: Klucel (hydroxypropylcellulose) (HPC), higher = longer survival); 101 % of control (endpoint: median survival time, dose: 10.0 mg/kg/injection, schedule: Q01DX009 (ip), vehicle: Klucel (hydroxypropylcellulose) (HPC), higher = longer survival).
For the molecule `CNc1nc(N(C)C)nc(N(C)C)n1`, the T/C is 112 % of control (endpoint: median survival time, dose: 67.0 mg/kg/injection, schedule: Q01DX009 (ip), vehicle: water, higher = longer survival); 96 % of control (endpoint: median survival time, dose: 100.0 mg/kg/injection, schedule: Q04DX003 (ip), vehicle: water, higher = longer survival); 95 % of control (endpoint: median survival time, dose: 150.0 mg/kg/injection, schedule: Q04DX003 (ip), vehicle: water, higher = longer survival); 90 % of control (endpoint: median survival time, dose: 225.0 mg/kg/injection, schedule: Q04DX003 (ip), vehicle: water, higher = longer survival).
In the case of `CC1NC(=O)C(NC(=O)c2cnc3ccccc3n2)COC(=O)C(C(C)C)N(C)C(=O)C2CSSCC(C(=O)N(C)C(C(C)C)C(=O)OCC(NC(=O)c3cnc4ccccc4n3)C(=O)NC(C)C(=O)N2C)N(C)C1=O` (stereo unspecified) (I: Quinoxaline2carbonyl-SA[NMeC][NMeV] / II: Quinoxaline2carbonyl-SA[NMeC][NMeV]; ester I:1-II:C, I:C-II:1; disulfide I:3-II:3; configuration not given here), the T/C is, setting by setting: (endpoint: median survival time, dose: 11.2 micrograms/kg/injection, schedule: Q01DX009 (ip), vehicle: Klucel (hydroxypropylcellulose) (HPC), higher = longer survival) 91 % of control; (endpoint: median survival time, dose: 22.5 micrograms/kg/injection, schedule: Q01DX009 (ip), vehicle: Klucel (hydroxypropylcellulose) (HPC), higher = longer survival) 107 % of control; (endpoint: median survival time, dose: 45.0 micrograms/kg/injection, schedule: Q01DX009 (ip), vehicle: Klucel (hydroxypropylcellulose) (HPC), higher = longer survival) 109 % of control; (endpoint: median survival time, dose: 90.0 micrograms/kg/injection, schedule: Q01DX009 (ip), vehicle: Klucel (hydroxypropylcellulose) (HPC), higher = longer survival) 104 % of control.
With `CC1(C)N=C(N)N=C(N)N1c1ccc(OCC(=O)Nc2ccc(S(=O)(=O)F)cc2)c(Cl)c1`, the T/C is 115 % of control (endpoint: median survival time, dose: 50.0 mg/kg/injection, schedule: Q04DX003 (ip), vehicle: saline, higher = longer survival) and 113 % of control (endpoint: median survival time, dose: 100.0 mg/kg/injection, schedule: Q04DX003 (ip), vehicle: saline, higher = longer survival).
`OCC1SC(O)C(O)C(O)C1O` (stereo unspecified): the T/C is 104 % of control (endpoint: median survival time, dose: 500.0 mg/kg/injection, schedule: Q02HX003 (ip), vehicle: saline, higher = longer survival); 103 % of control (endpoint: median survival time, dose: 500.0 mg/kg/injection, schedule: Q02HX003 (ip), vehicle: water, higher = longer survival); 89 % of control (endpoint: median survival time, dose: 1000.0 mg/kg/injection, schedule: Q02HX003 (ip), vehicle: saline, higher = longer survival); 95 % of control (endpoint: median survival time, dose: 1000.0 mg/kg/injection, schedule: Q02HX003 (ip), vehicle: water, higher = longer survival); 100 % of control (endpoint: median survival time, dose: 1500.0 mg/kg/injection, schedule: Q01DX001 (ip), vehicle: saline, higher = longer survival); 99 % of control (endpoint: median survival time, dose: 1500.0 mg/kg/injection, schedule: Q01DX001 (ip), vehicle: water, higher = longer survival). Moreover, the T/C (endpoint: median survival time, dose: 3000.0 mg/kg/injection, schedule: Q01DX001 (ip), vehicle: saline, higher = longer survival) was 91 % of control and the T/C (endpoint: median survival time, dose: 3000.0 mg/kg/injection, schedule: Q01DX001 (ip), vehicle: water, higher = longer survival) is 92 % of control.
As for `O=P(O)(NCCCl)NCCCl`, the T/C (endpoint: median survival time, dose: 50.0 mg/kg/injection, schedule: Q01DX001 (ip), vehicle: saline, higher = longer survival) was 98 % of control and the T/C (endpoint: median survival time, dose: 150.0 mg/kg/injection, schedule: Q01DX001 (ip), vehicle: saline, higher = longer survival) was 162 % of control.
With `CCCCS(=O)CC(CO)NC(=O)/C=C/c1c(C)[nH]c(=O)[nH]c1=O` (stereo unspecified), the T/C (endpoint: median survival time, dose: 1.25 mg/kg/injection, schedule: Q01DX009 (ip), vehicle: water, higher = longer survival) was 100 % of control; the T/C (endpoint: median survival time, dose: 5.0 mg/kg/injection, schedule: Q01DX009 (ip), vehicle: water, higher = longer survival) was 100 % of control; the T/C (endpoint: median survival time, dose: 10.0 mg/kg/injection, schedule: Q01DX009 (ip), vehicle: water, higher = longer survival) was 116 % of control.
For `O=C1c2ccccc2C(=O)c2c(NCCNCCO)ccc(NCCNCCO)c21`, the T/C (endpoint: median survival time, dose: 0.5 mg/kg/injection, schedule: Q01DX009 (ip), vehicle: saline with Tween-80, higher = longer survival) was 106 % of control and 119 % of control; the T/C (endpoint: median survival time, dose: 0.5 mg/kg/injection, schedule: Q01DX009 (ip), vehicle: saline, higher = longer survival) is 111 % of control; the T/C (endpoint: median survival time, dose: 1.0 mg/kg/injection, schedule: Q01DX009 (ip), vehicle: saline with Tween-80, higher = longer survival) is 93 % of control and 115 % of control; the T/C under setting [1] is 104 % of control and 110 % of control; the T/C (endpoint: median survival time, dose: 1.0 mg/kg/injection, schedule: Q02DX009 (ip), vehicle: saline, higher = longer survival) is 100 % of control; the T/C (endpoint: median survival time, dose: 2.0 mg/kg/injection, schedule: Q01DX009 (ip), vehicle: saline with Tween-80, higher = longer survival) is 101 % of control and 108 % of control. In addition, the T/C reads like this: under setting [2], 100 % of control and 104 % of control and 107 % of control; under setting [3], 92 % of control; (endpoint: median survival time, dose: 4.0 mg/kg/injection, schedule: Q02DX009 (ip), vehicle: Klucel (hydroxypropylcellulose) (HPC), higher = longer survival) 94 % of control; (endpoint: median survival time, dose: 4.0 mg/kg/injection, schedule: Q02DX009 (ip), vehicle: saline, higher = longer survival) 154 % of control; (endpoint: median survival time, dose: 8.0 mg/kg/injection, schedule: Q01DX009 (ip), vehicle: Klucel (hydroxypropylcellulose) (HPC), higher = longer survival) 104 % of control; under setting [4], 107 % of control. For the same molecule, the T/C was 117 % of control (endpoint: median survival time, dose: 8.0 mg/kg/injection, schedule: Q02DX009 (ip), vehicle: Klucel (hydroxypropylcellulose) (HPC), higher = longer survival); 110 % of control (endpoint: median survival time, dose: 8.0 mg/kg/injection, schedule: Q02DX009 (ip), vehicle: saline, higher = longer survival); 107 % of control (endpoint: median survival time, dose: 8.0 mg/kg/injection, schedule: Q02DX009 (ip), vehicle: water, higher = longer survival); 104 % of control (endpoint: median survival time, dose: 13.0 mg/kg/injection, schedule: Q01DX009 (ip), vehicle: Klucel (hydroxypropylcellulose) (HPC), higher = longer survival); 152 % of control (endpoint: median survival time, dose: 16.0 mg/kg/injection, schedule: Q01DX009 (ip), vehicle: Klucel (hydroxypropylcellulose) (HPC), higher = longer survival); 117 % of control under setting [5]. Moreover, the T/C is 113 % of control (endpoint: median survival time, dose: 16.0 mg/kg/injection, schedule: Q02DX009 (ip), vehicle: Klucel (hydroxypropylcellulose) (HPC), higher = longer survival); 95 % of control and 106 % of control (endpoint: median survival time, dose: 16.0 mg/kg/injection, schedule: Q02DX009 (ip), vehicle: water, higher = longer survival); 97 % of control (endpoint: median survival time, dose: 43.0 mg/kg/injection, schedule: Q04DX003 (ip), vehicle: Klucel (hydroxypropylcellulose) (HPC), higher = longer survival); 91 % of control (endpoint: median survival time, dose: 74.0 mg/kg/injection, schedule: Q01DX001 (ip), vehicle: Klucel (hydroxypropylcellulose) (HPC), higher = longer survival); 64 % of control (endpoint: median tumor weight (est.), dose: 13.0 mg/kg/injection, schedule: Q01DX009 (ip), vehicle: Klucel (hydroxypropylcellulose) (HPC), higher = larger tumour); 52 % of control (endpoint: median tumor weight (est.), dose: 43.0 mg/kg/injection, schedule: Q04DX003 (ip), vehicle: Klucel (hydroxypropylcellulose) (HPC), higher = larger tumour).
